Among the data in US9120749B2, “Quinoline derivatives and MELK inhibitors containing the same” (ONCOTHERAPY SCIENCE, INC., priority 2010, dated 2015) are IC50 values, retold here.

The target in one assay is MELK (Homo sapiens, UniProt Q14680). In words: Kinase assay: MELK activity, phosphorylation of FITC-labeled histone H3 peptide measured by IMAP fluorescence polarization. Type of assay: biochemical. Conditions: read-out: IC50 (μM) (kinase assay). An outline of the steps:
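Substrate is FITC-labeled histone H3 peptide. Compounds come from a 12.5 mM DMSO stock, diluted so assay DMSO is 1%. The stop step adds threefold-volume progressive binding solution, followed by 0.5 h at room temperature and an FP read.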

The next assay deals with T47D cells. The assay can be described thus: Cell-based assay: anti-proliferative activity, Cell Counting Kit-8, 72 hours (T47D). Conditions: Homo sapiens, T47D, 72 h. Summed up: (§1)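 IC50 values come from CCK-8 growth measurements taken 72 hours post-treatment of plated cells with test compounds. Expression of MELK across the panel was assessed through immunoblot of unfractionated lysates.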

In another assay the test system is A549 cells. In words: Cell-based assay: anti-proliferative activity, Cell Counting Kit-8, 72 hours (A549). The following applies: Homo sapiens, A549, 72 h, 72 hours. Summed up:
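A549 cells were seeded in 96-well plates and exposed to candidate inhibitors for 72 hours. Cell growth was then measured with Cell Counting Kit-8, and IC50 values were calculated from the resulting growth data.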

A further assay deals with HT-1197 cells. In words: Cell-based assay: anti-proliferative activity, Cell Counting Kit-8, 72 hours (HT-1197, negative control without MELK expression). The following applies: Homo sapiens, HT1197, 72 h, HT1197 cells (negative control, no MELK expression), 72 hours. Summed up:
as §1

A further assay has as its system DU4475 cells. In words: Cell-based assay: anti-proliferative activity, Cell Counting Kit-8, 72 hours (DU4475). Conditions: Homo sapiens, DU-4475, 72 h.

Chain of MELK (Q14680 whole entry, looked up): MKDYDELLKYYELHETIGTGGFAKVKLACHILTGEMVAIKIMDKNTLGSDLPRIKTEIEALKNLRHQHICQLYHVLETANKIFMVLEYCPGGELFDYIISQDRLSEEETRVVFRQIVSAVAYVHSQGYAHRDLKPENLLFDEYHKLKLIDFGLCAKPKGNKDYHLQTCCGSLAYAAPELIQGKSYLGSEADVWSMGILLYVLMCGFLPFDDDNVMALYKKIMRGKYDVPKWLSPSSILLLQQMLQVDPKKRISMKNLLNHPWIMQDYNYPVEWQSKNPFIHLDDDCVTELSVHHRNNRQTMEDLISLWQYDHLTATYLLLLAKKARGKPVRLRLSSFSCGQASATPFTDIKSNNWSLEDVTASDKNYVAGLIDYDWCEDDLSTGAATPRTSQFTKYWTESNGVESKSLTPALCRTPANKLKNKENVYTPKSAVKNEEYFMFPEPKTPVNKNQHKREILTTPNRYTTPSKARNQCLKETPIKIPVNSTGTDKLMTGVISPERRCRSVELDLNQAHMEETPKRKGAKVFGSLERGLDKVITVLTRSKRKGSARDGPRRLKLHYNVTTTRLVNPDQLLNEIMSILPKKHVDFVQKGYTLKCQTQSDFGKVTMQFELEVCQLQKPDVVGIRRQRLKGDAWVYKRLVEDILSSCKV

`COc1cc(-c2ccc3ncc(C(=O)C4CC4)c(Nc4ccc(CN5CCN(C)CC5)nc4)c3c2)cc(Cl)c1O` [Example 683, (6-(3-chloro-4-hydroxy-5-methoxyphenyl)-4-(6-((4-methylpiperazin-1-yl)methyl)pyridin-3-ylamino)quinolin-3-yl)(cyclopropyl)methanone]: the IC50 came out at 0.016 µM at MELK; 0.69 µM with T47D cells; 1.2 µM in the assay with A549 cells; 9.8 µM with HT-1197 cells; 1.3 µM in the assay on DU4475 cells.

With `CN1CCN(Cc2ccc(Nc3c(C(=O)C4CC4)cnc4ccc(-c5cc(Cl)c(O)c(Cl)c5)cc34)cn2)CC1` [Example 682, cyclopropyl(6-(3,5-dichloro-4-hydroxyphenyl)-4-(6-((4-methylpiperazin-1-yl)methyl)pyridin-3-ylamino)quinolin-3-yl)methanone], the 50% inhibitory concentration (IC50) came out at 0.018 µM on MELK; 0.55 µM in the assay with T47D cells; 0.7 µM in the assay on A549 cells; 14 µM in the assay on HT-1197 cells; 0.32 µM in the assay on DU4475 cells.

As to `COc1cc(-c2ccc3ncc(C(=O)C(C)C)c(Nc4ccc(N5CCNCC5)nc4)c3c2)cc(Cl)c1O` [Example 680, 1-(6-(3-chloro-4-hydroxy-5-methoxyphenyl)-4-(6-(piperazin-1-yl)pyridin-3-ylamino)quinolin-3-yl)-2-methylpropan-1-one], the IC50 on MELK amounted to 0.011 µM; in the assay on T47D cells, 0.59 µM; with A549 cells, 1.3 µM; in the assay on HT-1197 cells it was 2.4 µM; with DU4475 cells, 1 µM.

Regarding `COc1cc(-c2ccc3ncc(C(C)=O)c(Nc4cccc(CCN(C)C)c4)c3c2)cc(Cl)c1O` [Example 730, 1-(6-(3-chloro-4-hydroxy-5-methoxyphenyl)-4-(3-(2-(dimethylamino)ethyl)phenylamino)quinolin-3-yl)ethanone], the IC50 at MELK came to 0.0026 µM; with T47D cells, 2.1 µM; in the assay with A549 cells, 0.82 µM; in the assay on HT-1197 cells, 8 µM; with DU4475 cells, 0.69 µM.

Take `COc1cc(-c2ccc3ncc(C(=O)C4CC4)c(Nc4ccc(CN5CCCC5)nc4)c3c2)cc(Cl)c1O` [Example 659, (6-(3-chloro-4-hydroxy-5-methoxyphenyl)-4-(6-(pyrrolidin-1-ylmethyl)pyridin-3-ylamino)quinolin-3-yl)(cyclopropyl)methanone]: the IC50 was 0.013 µM at MELK; 0.6 µM in the assay on T47D cells; 0.32 µM in the assay on A549 cells; 7.3 µM in the assay with HT-1197 cells; 0.28 µM in the assay with DU4475 cells.

In the case of `COC1CCN(C2CCC(Nc3c(C(=O)C4CC4)cnc4ccc(-c5cc(F)c(O)c(Cl)c5)cc34)CC2)C1` (stereo not drawn) [Example 686, (6-(3-chloro-5-fluoro-4-hydroxyphenyl)-4-(4-(3-methoxypyrrolidin-1-yl)cyclohexylamino)quinolin-3-yl)(cyclopropyl)methanone], the IC50 worked out at 0.0035 µM on MELK; 0.19 µM with T47D cells; 0.17 µM in the assay with A549 cells; 1.1 µM with HT-1197 cells; 0.16 µM with DU4475 cells.

Regarding `CCC(=O)c1cnc2ccc(-c3cc(F)c(O)c(Cl)c3)cc2c1Nc1ccc(N2CCN(C)CC2)nc1` [Example 736, 1-(6-(3-chloro-5-fluoro-4-hydroxyphenyl)-4-(6-(4-methylpiperazin-1-yl)pyridin-3-ylamino)quinolin-3-yl)propan-1-one], the IC50 at MELK turned out to be 0.036 µM; in the assay on T47D cells, 0.14 µM; in the assay with A549 cells it was 0.22 µM; in the assay on HT-1197 cells it was 10 µM; in the assay on DU4475 cells, 0.19 µM.

Turning to `CN(C)Cc1ccc(Nc2c(C(=O)C3CC3)cnc3ccc(-c4cc(Cl)c(O)c(Cl)c4)cc23)cn1` [Example 657, Cyclopropyl{6-(3,5-dichloro-4-hydroxyphenyl)-4-[6-((dimethylamino)methyl)pyridin-3-ylamino]quinolin-3-yl}methanone], the IC50 amounted to 0.0089 µM on MELK; 0.31 µM with T47D cells; 0.18 µM with A549 cells; 2.8 µM with HT-1197 cells; 0.098 µM in the assay on DU4475 cells.

Take `O=C(c1cnc2ccc(-c3cc(F)c(O)c(Cl)c3)cc2c1Nc1ccc(N2CCC(O)C2)nc1)C1CC1` (stereo not drawn) [Example 671, (6-(3-chloro-5-fluoro-4-hydroxyphenyl)-4-(6-(3-hydroxypyrrolidin-1-yl)pyridin-3-ylamino)quinolin-3-yl)(cyclopropyl)methanone]: the IC50 at MELK was determined as 0.025 µM; in the assay with T47D cells, 0.3 µM; in the assay on A549 cells, 0.85 µM; in the assay on HT-1197 cells, 4.9 µM; in the assay on DU4475 cells it was 0.52 µM.

On to `O=C(c1cnc2ccc(-c3cc(F)c(O)c(Cl)c3)cc2c1N[C@H]1CC[C@H](CN2CCC(O)C2)CC1)C1CC1` (stereo partly drawn) [Example 631, (6-(3-chloro-5-fluoro-4-hydroxyphenyl)-4-((trans-4-((3-hydroxypyrrolidin-1-yl)methyl)cyclohexyl)amino)quinolin-3-yl)(cyclopropyl)methanone], for which the IC50 at MELK was determined as 0.0021 µM; in the assay on T47D cells it was 0.074 µM; with A549 cells, 0.17 µM; with HT-1197 cells, 0.85 µM; in the assay on DU4475 cells, 0.055 µM.

In the case of `O=C(c1cnc2ccc(-c3cc(Cl)c(O)c(Cl)c3)cc2c1NC1CCC(N2CC[C@@H](F)C2)CC1)C1CC1` (stereo partly drawn) [Example 643, (R)-cyclopropyl(6-(3,5-dichloro-4-hydroxyphenyl)-4-(4-(3-fluoropyrrolidin-1-yl)cyclohexylamino)quinolin-3-yl)methanone], the half-inhibitory concentration (IC50) came out at 0.004 µM at MELK; 0.37 µM in the assay with T47D cells; 0.34 µM in the assay on A549 cells; 2.4 µM with HT-1197 cells; 0.14 µM with DU4475 cells.

Consider `CC(=O)c1cnc2ccc(-c3cc(Cl)c(O)c(Cl)c3)cc2c1N[C@@H]1CC[C@@H](CN(C)C)C1` [Example 718, 1-(6-(3,5-dichloro-4-hydroxyphenyl)-4-((1R,3R)-3-((dimethylamino)methyl)cyclopentylamino)quinolin-3-yl)ethanone], for which the IC50 is 0.0055 µM on MELK; 0.36 µM in the assay with T47D cells; 0.44 µM with A549 cells; 2 µM with HT-1197 cells; 0.19 µM in the assay on DU4475 cells.

In the case of `COc1cc(-c2ccc3ncc(C(=O)C4CC4)c(NC4CCNCC4)c3c2)cc(Cl)c1O` [Example 727, (6-(3-chloro-4-hydroxy-5-methoxyphenyl)-4-(piperidin-4-ylamino)quinolin-3-yl)(cyclopropyl)methanone], the IC50 was 0.0034 µM on MELK; 0.37 µM in the assay on T47D cells; 0.19 µM in the assay on A549 cells; 1.1 µM in the assay on HT-1197 cells; 0.14 µM with DU4475 cells.

As for `CN(C)C[C@]1(O)CC[C@@H](Nc2c(C(=O)C3CC3)cnc3ccc(-c4cc(F)c(O)c(Cl)c4)cc23)CC1` [Example 673, (6-(3-chloro-5-fluoro-4-hydroxyphenyl)-4-((cis-4-((dimethylamino)methyl)-4-hydroxycyclohexyl)amino)quinolin-3-yl)(cyclopropyl)methanone], the IC50 stood at 0.0042 µM on MELK; 0.16 µM with T47D cells; 0.16 µM in the assay on A549 cells; 1.4 µM with HT-1197 cells; 0.089 µM in the assay with DU4475 cells.

Turning to `CN(C)C1CCN(C[C@H]2CC[C@H](Nc3c(C(=O)C4CC4)cnc4ccc(-c5cc(F)c(O)c(Cl)c5)cc34)CC2)C1` (stereo partly drawn) [Example 662], the IC50 on MELK came out at 0.004 µM; in the assay with T47D cells, 0.19 µM; in the assay on A549 cells, 0.15 µM; in the assay on HT-1197 cells, 0.95 µM; in the assay on DU4475 cells it was 0.14 µM.
